How the values were obtained:
[1] = test system: fibroblast; assay: Cytotoxicity on human cells, automated nuclei counting: fibroblast; format: cell-based; details: exposed 24 h to 48 h, 0.1 to 25 μM
Summary of the method: (§1)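 Seed 4.10^3 cells/well; incubate 24 h, 37° C, 5% CO2, DMEM or RPMI with 10% FCS. Add test molecules at increasing concentrations (DMSO controls ≤1%). Analyse by automated imaging.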

[2] = target: T1, CDK5/D25 (Homo sapiens, UniProt Q00535); assay: CDK5 kinase inhibition (33P-ATP, histone H1); format: biochemical; details: buffer C, 30° C., 15 μM ATP, read-out: IC50 μM Kinases CDK5
T1 construct: made in house
Summary of the method: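 Kinase reactions ran in buffer C (25 mM Mops pH 7.2, 15 mM MgCl2, 1 mM DTT, phosphatase inhibitors) with [33P]-ATP for 30 min at 30° C. Phosphorylated substrate was captured on P81 phosphocellulose filters, washed in phosphoric acid and counted by scintillation.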

[3] = test system: PC3 (prostate); assay: Cytotoxicity on human cells, automated nuclei counting: PC3; format: cell-based; details: PC-3, exposed 24 h to 48 h, 0.1 to 25 μM
Summary of the method: as §1

[4] = target: DYRK1A (Homo sapiens, UniProt Q13627); assay: DYRK1A kinase inhibition (Woodtide substrate)
[5] = test system: MDA-MB 231 (breast); assay: Cytotoxicity on human cells, automated nuclei counting: MDA-MB 231; format: cell-based; details: MDA-MB 231 cells, exposed 24 h to 48 h, 0.1 to 25 μM
Summary of the method: as §1

[6] = target: CDK1/cyclin B; assay: CDK1/cyclin B kinase inhibition (33P-ATP, histone H1); format: biochemical, sea star; details: buffer C, 30° C., 15 μM ATP, read-out: IC50 μM Kinases CDK1
Protocol: The protein kinase inhibition activities of the compounds of the invention are tested according to the following general procedure:
Buffer C: 60 mM β-glycerophosphate, 15 mM p-nitrophenyl-phosphate, 25 mM Mops (pH 7.2), 5 mM EGTA, 15 mM mgCl2, 1 mM DTT, 1 mM sodium vanadate and 1 mM phenylphosphate.
The controls were made with suitable dilutions of DMSO.
ATP (3.000 Ci/mmol.; 10 mCi/mL) in a final volume of 30 μL. After 30 mins of incubation at 30° C., 25 μL of supernatant aliquots were deposited on phosphocellulose Whatman P81 paper pieces of 2.5×3 cm, and after 20 seconds, the filters were washed five times (for at least 5 minutes each time) in a solution of 10 mL of phosphoric acid/1 litre of water. The wet filters were counted in the presence of 1 mL of scintillation fluid ACS (Amersham).

[7] = test system: Huh7 (liver); assay: Cytotoxicity on human cells, automated nuclei counting: Huh7; format: cell-based; details: Huh-7, exposed 24 h to 48 h, 0.1 to 25 μM
Summary of the method: as §1

[8] = test system: HCT 116 (colon); assay: Cytotoxicity on human cells, automated nuclei counting: HCT 116; format: cell-based; details: HCT 116 cells, exposed 24 h to 48 h, 0.1 to 25 μM
Summary of the method: as §1

[9] = test system: Caco (colon); assay: Cytotoxicity on human cells, automated nuclei counting: Caco; format: cell-based; details: exposed 24 h to 48 h, 0.1 to 25 μM
Summary of the method: as §1

[10] = test system: NCI (lung); assay: Cytotoxicity on human cells, automated nuclei counting: NCI; format: cell-based; details: exposed 24 h to 48 h, 0.1 to 25 μM
Summary of the method: as §1

[11] = target: GSK-3αβ; assay: GSK-3 kinase inhibition (GS-1 substrate); details: read-out: IC50 μM Kinases GSK3, buffer A, 30° C., 15 μM ATP

T1 sequence (Q00535 whole entry): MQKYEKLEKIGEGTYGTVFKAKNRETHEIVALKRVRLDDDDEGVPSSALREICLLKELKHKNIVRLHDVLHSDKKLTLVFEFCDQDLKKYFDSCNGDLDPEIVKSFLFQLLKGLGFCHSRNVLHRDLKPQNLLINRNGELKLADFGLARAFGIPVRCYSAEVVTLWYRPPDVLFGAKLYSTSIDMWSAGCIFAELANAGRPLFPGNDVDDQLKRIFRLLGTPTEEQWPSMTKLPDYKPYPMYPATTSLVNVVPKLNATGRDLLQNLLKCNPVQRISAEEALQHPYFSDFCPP
T1 sequence (Q15078 99-307 partner limits assumed): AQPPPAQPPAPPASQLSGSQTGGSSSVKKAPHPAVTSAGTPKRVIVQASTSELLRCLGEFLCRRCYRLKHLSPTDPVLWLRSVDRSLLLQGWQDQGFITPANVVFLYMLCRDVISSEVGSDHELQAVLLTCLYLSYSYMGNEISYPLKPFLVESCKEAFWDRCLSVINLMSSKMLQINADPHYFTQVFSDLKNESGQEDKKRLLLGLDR

| SMILES | IC50 [2] | melting point | IC50 [4] | IC50 [6] | IC50 [11] | IC50 [1] | IC50 [3] | IC50 [5] | IC50 [7] | IC50 [8] | IC50 [9] | IC50 [10] |
| --- | --- | --- | --- | --- | --- | --- | --- | --- | --- | --- | --- | --- |
| O=C1c2cccc(NC(=S)Nc3ncccn3)c2C2CCCCN12 (centres unmarked) [Compound 65, 1-(6-Oxo-1,2,3,4,6,10b-hexahydropyrido[2,1-a]isoindol-10-yl)-3-(pyrimidin-2-yl)thiourea] | > 10 µM | 212 °C | ≥ 100 µM | – | > 10 µM | > 25 µM | > 25 µM | 25 µM | > 25 µM | > 25 µM | 20 µM | > 25 µM |
| O=C1c2cccc(NC(=S)Nc3cnccn3)c2C2CC3(CCN12)SCCS3 (centres unmarked) [Compound 69, 1-(6′-Oxo-3′,4′,6′,10b′-tetrahydro-1′H-spiro[[1,3]dithiolane-2,2′-pyrido[2,1-a]isoindole]-10′-yl)-3-(pyrazin-2-yl)thiourea] | > 10 µM | 128 °C | > 10 µM | – | > 10 µM | 25 µM | > 25 µM | 10 µM | > 25 µM | 15 µM | 4 µM | > 25 µM |
| O=C1c2cccc(NC(=S)Nc3ccccn3)c2C2CC3(CCN12)SCCS3 (centres unmarked) [Compound 70, 1-(6′-Oxo-3′,4′,6′,10b′-tetrahydro-1′H-spiro[[1,3]dithiolane-2,2′-pyrido[2,1-a]isoindole]-10′-yl)-3-(pyridin-2-yl)thiourea] | 19 µM | 142 °C | 22 µM | – | 2.5 µM | 20 µM | > 25 µM | 3 µM | 15 µM | 2 µM | 2 µM | 10 µM |
| O=C1c2cccc(NC(=S)Nc3cc[nH]n3)c2C2CC3(CCN12)SCCS3 (centres unmarked) [Compound 71, 1-(6′-Oxo-3′,4′,6′,10b′-tetrahydro-1′H-spiro[[1,3]dithiolane-2,2′-pyrido[2,1-a]isoindole]-10′-yl)-3-(1H-pyrazol-3-yl)thiourea] | > 10 µM | 185 °C | > 10 µM | – | > 10 µM | 25 µM | > 25 µM | 15 µM | 20 µM | 7 µM | 15 µM | 15 µM |
| O=C1c2cccc(NC(=S)Nc3ncccc3Br)c2C2CC3(CCN12)SCCS3 (centres unmarked) [Compound 74, 1-(3-Bromopyridin-2-yl)-3-(6′-oxo-3′,4′,6′,10b′-tetrahydro-1′H-spiro[[1,3]dithiolane-2,2′-pyrido[2,1-a]isoindole]-10′-yl)thiourea] | > 10 µM | 215 °C | > 10 µM | – | 3 µM | 25 µM | 15 µM | > 25 µM | 10 µM | 25 µM | 20 µM | 12 µM |

These reach a lower IC50 [2]. Values come first.

| IC50 [2] | melting point | IC50 [4] | IC50 [6] | IC50 [11] | SMILES | IC50 [1] | IC50 [3] | IC50 [5] | IC50 [7] | IC50 [8] | IC50 [9] | IC50 [10] |
| --- | --- | --- | --- | --- | --- | --- | --- | --- | --- | --- | --- | --- |
| 8.1 µM | 195 °C | 92 µM | – | 4.5 µM | O=C1c2cccc(NC(=S)Nc3cccc(Br)n3)c2C2CCCCN12 (centres unmarked) [Compound 67, 1-(6-Bromopyridin-2-yl)-3-(6-oxo-1,2,3,4,6,10b-hexahydropyrido[2,1-a]isoindol-10-yl)thiourea] | 10 µM | 8 µM | 4 µM | 10 µM | 2 µM | 3 µM | 12 µM |
| 4.9 µM | > 260 °C | > 10 µM | – | 0.035 µM | COc1cc(NC(=O)Nc2cccc3c2C2CC(O)CCN2C3=O)nc2ccccc12 (centres unmarked) [Compound 109, 1-(2-Hydroxy-6-oxo-1,2,3,4,6,10b-hexahydropyrido[2,1-a]isoindol-10-yl)-3-(4-methoxyquinolin-2-yl)urea] | 5 µM | 5 µM | 6 µM | 1 µM | 1 µM | 15 µM | 1 µM |
| 1.6 µM | 175 °C | – | 25 µM | 0.23 µM | COc1ccc(NC(=O)Nc2cccc3c2C2CCCCN2C3=O)cn1 (centres unmarked) [Compound 96, N-(6-Methoxypyridin-3-yl)-M-(6-oxo-1,2,3,4,6,10b-hexahydropyrido[2,1-a]isoindol-10-yl)urea] | 1.5 µM | 0.6 µM | 0.2 µM | 0.5 µM | 0.2 µM | 0.8 µM | 0.6 µM |
| 1.5 µM | 248 °C | > 10 µM | > 10 µM | 0.27 µM | O=C(Nc1cc(-c2ccccc2)on1)Nc1cccc2c1C1CCCCN1C2=O (centres unmarked) [Compound 25, 1-(6-oxo-1,2,3,4,6,10b-hexahydropyrido[2,1-a]isoindol-10-yl)-3-(5-phenyl-isoxazol-3-yl)urea] | 0.1 µM | 0.1 µM | 0.2 µM | 0.25 µM | 0.03 µM | 0.1 µM | 1.5 µM |
| 0.48 µM | 220 °C | 3 µM | – | 0.17 µM | O=C(Nc1cccc2c1C1CCCCN1C2=O)Nc1ncccc1Br (centres unmarked) [Compound 75, 1-(3-Bromopyridin-2-yl)-3-(6-oxo-1,2,3,4,6,10b-hexahydropyrido[2,1-a]isoindol-10-yl)urea] | 0.6 µM | 7 µM | 1.5 µM | 0.25 µM | 0.4 µM | 5 µM | 2 µM |
| 0.24 µM | 242 °C | > 10 µM | 0.22 µM | 0.033 µM | O=C(Nc1ccccn1)Nc1cccc2c1C1CC3(CCN1C2=O)SCCS3 (centres unmarked) [Compound 16, 1-(6′-oxo-3′,4′,6′,10b′-tetrahydro-1′H-spiro[[1,3]dithiolane-2,2′-pyrido[2,1-a]isoindole]-10′-yl)-3-(pyridin-2-yl)urea] | > 25 µM | 6 µM | 20 µM | 15 µM | 10 µM | 15 µM | 25 µM |
| 0.15 µM | 236 °C | > 10 µM | 0.13 µM | 0.044 µM | O=C(Nc1cnccn1)Nc1cccc2c1C1CC3(CCN1C2=O)SCCS3 (centres unmarked) [Compound 17, 1-(6′-Oxo-3′,4′,6′,10b′-tetrahydro-1′H-spiro[[1,3]dithiolane-2,2′-pyrido[2,1-a]isoindole]-10′-yl)-3-(pyrazin-2-yl)urea] | 0.8 µM | 0.6 µM | 0.15 µM | 0.1 µM | 0.1 µM | 0.5 µM | 0.4 µM |
| 0.084 µM | 250 °C | > 10 µM | – | 0.032 µM | O=C(Nc1cnccn1)Nc1cccc2c1C1C[C@@H](O)CCN1C2=O (stereo partly drawn) [Compound 105, 1-((2S)-2-Hydroxy-6-oxo-1,2,3,4,6,10b-hexahydropyrido[2,1-a]isoindol-10-yl)-3-(pyrazin-2-yl)urea] | 12 µM | 20 µM | 25 µM | 4 µM | 8 µM | > 25 µM | 8 µM |

From patent publication US20120095022A1, “DERIVATIVES OF 10-AMINO-1,2,3,4-TETRAHYDROPYRIDO[2,1-A]ISOINDOL-6(10BH)-ONES, METHOD FOR PREPARATION THEREOF AND THERAPEUTIC USES THEREOF” (UNIVERSITE D'ORLEANS, priority 2009, published 2012)
